In publication PMC6193938, “Characterization of a novel AICARFT inhibitor which potently elevates ZMP and has anti-tumor activity in murine models” (Scientific Reports, 2018):
Where two headings read alike, the source gives them in different places.

Columns and labels:
NCI-H460 (lung) = assay: Low folate & high folate in vitro proliferation assay (Alamar Blue); format: cell-based, human; settings: for GI50: Homo sapiens
Experimental: Cells lines were acquired from cell banks, see supplemental material, grown using the cell banks recommended culture conditions (Supplemental Table 3). In some experiments noted “low folate” the cells were washed and grown in folate free RPMI-1640 media (Gibco #27016-021) supplemented with 5 ml 1 M Hepes, 5 ml 100 mM Na pyruvate, 2.5 mg/ml glucose and 10% defined FBS (Hyclone #SH30070) per 500 mL media for 5–7 days to deplete intracellular folate levels prior to the start of the experiment. Where noted, cells were maintained in complete “high folate” RPMI-1640 media (ATCC #30-2001) with 10% defined FBS to contrast with the low folate conditions.
Cells were cultured using recommended culture conditions unless noted otherwise (Supplemental Table 3). Cells were plated, dosed with compound and incubated at 37 °C for approximately 2 doubling times as determined for each cell line. Cell Titer Glo (Promega) assay was used to measure proliferation according to manufacturer’s recommendations by measuring luminescence with Flexstation3 (Molecular Devices) with 500 ms integration time. […] The % response was fit to a four-parameter logistic equation using ACTIVITYBASE 4.0 to determine the absolute IC50 values.
For a limited number of cell lines, compound dosing was performed under high or low folate conditions with cell viability being determined with Alamar Blue rather than an ATP dependent assay. Cells were plated and treated as described above. Proliferation was measured using Alamar Blue Cell Viability Reagent (Invitrogen), and read after approximately 1.5–4 hours incubation at 37 °C on the Envision plate reader (Perkin Elmer) with excitation at 570 nm and emission at 585 nm. The % inhibition for each sample was calculated and fit as described above.

CDK1 = biological target: T1, CDK1 (Homo sapiens, UniProt P06493); assay: CEREP protein kinase assay; format: biochemical
T1 construct: purchased CEREP Panlabs (Eurofins)
T1 sequence (P06493 whole entry): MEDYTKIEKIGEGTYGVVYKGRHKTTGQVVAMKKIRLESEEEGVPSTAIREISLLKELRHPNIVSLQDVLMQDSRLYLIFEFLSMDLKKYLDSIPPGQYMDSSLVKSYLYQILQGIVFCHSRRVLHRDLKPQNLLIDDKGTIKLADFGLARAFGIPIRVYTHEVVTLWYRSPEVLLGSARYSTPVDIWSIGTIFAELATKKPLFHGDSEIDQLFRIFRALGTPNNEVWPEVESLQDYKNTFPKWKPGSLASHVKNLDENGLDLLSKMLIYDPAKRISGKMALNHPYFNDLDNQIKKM
T1 sequence (P14635 whole entry partner): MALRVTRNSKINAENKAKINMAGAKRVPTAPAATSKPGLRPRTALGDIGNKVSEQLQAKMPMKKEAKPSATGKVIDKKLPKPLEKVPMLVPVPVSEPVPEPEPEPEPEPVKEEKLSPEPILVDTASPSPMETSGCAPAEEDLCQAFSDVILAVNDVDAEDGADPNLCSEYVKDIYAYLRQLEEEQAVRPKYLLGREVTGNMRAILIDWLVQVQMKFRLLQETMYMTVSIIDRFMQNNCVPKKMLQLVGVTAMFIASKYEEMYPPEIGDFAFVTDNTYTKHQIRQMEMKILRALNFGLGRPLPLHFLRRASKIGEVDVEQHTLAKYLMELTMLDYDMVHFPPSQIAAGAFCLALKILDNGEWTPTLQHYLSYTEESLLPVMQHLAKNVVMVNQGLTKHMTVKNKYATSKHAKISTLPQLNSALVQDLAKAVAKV

CDK2 = biological target: T2, CDK2 (Homo sapiens, UniProt P24941); assay: CEREP protein kinase assay; format: biochemical
T2 construct: purchased CEREP Panlabs (Eurofins)

EPHA3 = biological target: T3, EPHA3 (Homo sapiens, UniProt P29320); assay: CEREP protein kinase assay; format: biochemical
T3 construct: purchased CEREP Panlabs (Eurofins)
T3 sequence (P29320 21-983): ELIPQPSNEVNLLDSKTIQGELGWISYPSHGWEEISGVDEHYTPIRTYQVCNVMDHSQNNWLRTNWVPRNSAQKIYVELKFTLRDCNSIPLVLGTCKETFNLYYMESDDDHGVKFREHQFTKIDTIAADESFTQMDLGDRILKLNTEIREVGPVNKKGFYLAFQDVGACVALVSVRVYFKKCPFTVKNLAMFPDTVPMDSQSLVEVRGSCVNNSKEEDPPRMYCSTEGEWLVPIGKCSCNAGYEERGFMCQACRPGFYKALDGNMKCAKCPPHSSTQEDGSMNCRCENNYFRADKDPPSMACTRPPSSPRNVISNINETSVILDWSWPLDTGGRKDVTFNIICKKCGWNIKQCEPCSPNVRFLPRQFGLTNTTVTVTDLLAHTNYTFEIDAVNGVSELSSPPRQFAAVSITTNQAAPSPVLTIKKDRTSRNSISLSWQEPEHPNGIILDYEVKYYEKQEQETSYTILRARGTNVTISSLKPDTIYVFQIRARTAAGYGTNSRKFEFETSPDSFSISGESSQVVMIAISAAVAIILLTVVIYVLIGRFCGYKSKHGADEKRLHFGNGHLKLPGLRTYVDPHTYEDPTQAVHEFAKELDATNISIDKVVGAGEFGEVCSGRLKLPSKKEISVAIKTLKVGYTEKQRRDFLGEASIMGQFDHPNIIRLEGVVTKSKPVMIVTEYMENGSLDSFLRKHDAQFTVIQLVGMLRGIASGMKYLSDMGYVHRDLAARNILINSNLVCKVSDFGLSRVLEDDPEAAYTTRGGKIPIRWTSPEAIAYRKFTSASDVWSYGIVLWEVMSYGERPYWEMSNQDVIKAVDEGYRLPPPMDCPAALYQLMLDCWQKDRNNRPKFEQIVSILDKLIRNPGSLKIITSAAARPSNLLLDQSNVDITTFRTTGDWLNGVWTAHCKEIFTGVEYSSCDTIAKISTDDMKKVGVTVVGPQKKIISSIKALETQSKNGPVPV

FGFR3 = biological target: T4, FGFR3 (Homo sapiens, UniProt P22607); assay: CEREP protein kinase assay; format: biochemical
T4 construct: purchased CEREP Panlabs (Eurofins)
T4 sequence (P22607 23-806): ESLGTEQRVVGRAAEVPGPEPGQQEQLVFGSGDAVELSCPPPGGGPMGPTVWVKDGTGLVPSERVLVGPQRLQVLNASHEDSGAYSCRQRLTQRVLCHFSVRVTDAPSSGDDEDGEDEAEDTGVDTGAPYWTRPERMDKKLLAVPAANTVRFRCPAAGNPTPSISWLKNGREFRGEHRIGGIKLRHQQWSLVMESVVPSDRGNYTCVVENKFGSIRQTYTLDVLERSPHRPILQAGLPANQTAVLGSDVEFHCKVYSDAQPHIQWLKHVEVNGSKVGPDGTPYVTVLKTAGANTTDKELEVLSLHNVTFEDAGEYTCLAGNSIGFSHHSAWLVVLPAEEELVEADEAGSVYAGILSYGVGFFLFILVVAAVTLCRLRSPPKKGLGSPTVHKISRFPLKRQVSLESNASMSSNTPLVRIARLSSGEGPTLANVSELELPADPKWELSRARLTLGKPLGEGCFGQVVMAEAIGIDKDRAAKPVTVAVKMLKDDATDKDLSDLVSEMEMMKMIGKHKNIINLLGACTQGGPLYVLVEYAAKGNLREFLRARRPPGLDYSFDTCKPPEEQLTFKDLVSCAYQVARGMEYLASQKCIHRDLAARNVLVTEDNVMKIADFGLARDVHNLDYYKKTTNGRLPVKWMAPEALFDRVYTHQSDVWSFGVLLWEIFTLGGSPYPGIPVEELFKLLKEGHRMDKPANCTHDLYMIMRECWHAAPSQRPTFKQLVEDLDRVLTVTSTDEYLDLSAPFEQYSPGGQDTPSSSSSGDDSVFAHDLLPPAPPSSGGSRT

TTK = biological target: T5, TTK (Homo sapiens, UniProt P33981); assay: CEREP protein kinase assay; format: biochemical
T5 construct: purchased CEREP Panlabs (Eurofins)
T5 sequence (P33981 1-857): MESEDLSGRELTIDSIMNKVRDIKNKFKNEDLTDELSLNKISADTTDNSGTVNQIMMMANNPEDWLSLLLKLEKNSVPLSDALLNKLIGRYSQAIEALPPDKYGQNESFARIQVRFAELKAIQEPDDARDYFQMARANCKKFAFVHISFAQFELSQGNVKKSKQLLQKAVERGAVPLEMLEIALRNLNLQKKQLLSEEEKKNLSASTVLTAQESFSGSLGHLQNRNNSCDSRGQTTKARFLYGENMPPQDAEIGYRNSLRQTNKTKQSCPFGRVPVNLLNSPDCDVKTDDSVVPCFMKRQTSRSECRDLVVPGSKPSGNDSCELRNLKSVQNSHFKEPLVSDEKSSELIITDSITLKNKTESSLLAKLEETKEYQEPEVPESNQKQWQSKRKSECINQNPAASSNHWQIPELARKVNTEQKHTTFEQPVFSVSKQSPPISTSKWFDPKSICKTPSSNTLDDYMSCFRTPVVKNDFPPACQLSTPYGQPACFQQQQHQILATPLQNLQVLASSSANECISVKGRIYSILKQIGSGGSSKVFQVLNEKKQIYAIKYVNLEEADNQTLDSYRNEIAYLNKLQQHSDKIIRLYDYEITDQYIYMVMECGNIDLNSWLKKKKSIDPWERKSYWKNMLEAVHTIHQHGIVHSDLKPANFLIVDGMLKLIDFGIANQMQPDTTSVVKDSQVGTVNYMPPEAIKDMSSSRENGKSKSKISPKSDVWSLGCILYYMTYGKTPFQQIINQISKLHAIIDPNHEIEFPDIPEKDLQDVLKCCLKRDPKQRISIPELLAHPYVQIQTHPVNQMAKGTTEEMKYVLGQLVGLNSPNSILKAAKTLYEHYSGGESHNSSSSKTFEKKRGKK

In the case of `O=c1[nH]ccc2cc(F)c(NS(=O)(=O)c3ccc(N4CC[C@@H](O)C4)s3)cc12` [LSN3213128, N-(6-Fluoro-1-oxo-1,2-dihydroisoquinolin-7-yl)-5-[(3R)-3-hydroxypyrrolidin-1-yl]thiophene-2-sulfonamide], the “anti-proliferative effects on hypoxanthine supplementation” value (NCI-H460 (lung); 32 μM hypoxanthine) is reported as “completely rescued”, the GI50 (NCI-H460 (lung); RPMI media, read-out: Alamar Blue GI50 Regular folate) is reported as 3470 ± 2090 nM and the GI50 (NCI-H460 (lung); low folate RPMI media, read-out: Alamar Blue GI50 Low folate) is reported as 16.4 ± 5.1 nM. It also gave an inhibition at 0.2 µM (CDK1; @ 0.2 uM) of -4.14%, an inhibition at 2 µM (CDK1; @ 2 uM) of 4.5% and an inhibition at 20 µM (CDK1; @ 20 uM) of 5.99%. It also gave an inhibition at 0.2 µM (CDK2; @ 0.2 uM) of -10.2%, an inhibition at 2 µM (CDK2; @ 2 uM) of -1.29% and an inhibition at 20 µM (CDK2; @ 20 uM) of 29.2%. It also gave an inhibition at 0.2 µM (EPHA3; @ 0.2 uM) of -2.09%, an inhibition at 2 µM (EPHA3; @ 2 uM) of 9.04% and an inhibition at 20 µM (EPHA3; @ 20 uM) of 51.6%. It also gave an inhibition at 0.2 µM (FGFR3; @ 0.2 uM) of 3.62%, an inhibition at 2 µM (FGFR3; @ 2 uM) of 13.2% and an inhibition at 20 µM (FGFR3; @ 20 uM) of 47%. It also gave an inhibition at 0.2 µM (TTK; @ 0.2 uM) of -4.62%, an inhibition at 2 µM (TTK; @ 2 uM) of 6.44% and an inhibition at 20 µM (TTK; @ 20 uM) of 18.6%.
